Laboratory results taken from ChEMBL document CHEMBL4680274, “Modulating microRNA Processing: Enoxacin, the Progenitor of a New Class of Drugs” (J Med Chem, 2020).

Experiments:
HCT-116 = assay: Anticancer activity against human HCT116 cells incubated for 5 days by MTT assay; type: functional, cell-based; settings: HCT-116, 120 h
LNCaP = assay: Growth inhibition of human LNCaP cells incubated for 72 hrs by MTT assay; type: functional, cell-based
DU-145 = assay: Growth inhibition of human DU145 cells incubated for 72 hrs by MTT assay; type: functional, cell-based; settings: DU-145, 72 h
Zika virus = assay: Antiviral activity against ZIKV infected in human neural progenitor cells incubated with cells for 24 hrs prior to viral infection followed by replacement of fresh medium containing compound and measured at 48 hrs post infection by RT-PCR method; settings: Neural Progenitor Cell
[1] = Cytotoxicity against human neural progenitor cell by CellTiter-Glo Luminescent Cell Viability Assay; type: tissue-based; settings: neural progenitor cells

Work on `CCn1cc(C(=O)O)c(=O)c2cc(F)c(N3CCNCC3)nc21` [ENOXACIN] yielded an EC50 (HCT-116) of 124 µM, an EC50 (LNCaP) of 105 µM and an EC50 (DU-145) of 141 µM. For the same compound, the IC50 (Zika virus) was 52 µM and the CC50 [1] was 176 µM.
